This is an account of results in a melting point compilation (Tetko et al.; mined from patent text by program, amines drawn as free bases though some values may be those of a salt).

As a reminder, the melting point is the temperature of the solid-liquid transition. `Cc1ccc(S(=O)(=O)c2ccc3c(c2)CCCC3)cc1` returned a melting point of 130 to 132 °C. `Cc1c(O)cccc1C(=O)N[C@@H](Cc1ccccc1)[C@H](O)C(=O)N1CSC(C)(C)[C@H]1C(=O)N[C@@H]1CCOc2ccccc21`: the melting point was in the range of 135 to 136 °C.

In the case of `CCC1CC(=O)N(Cc2cccc(C(=O)NC3CCCC3)c2)N=C1c1ccc(OC)c(OC)c1` (stereo unspecified), the melting point amounted to 54 °C.

The compound `C#CC(=O)N1CCN(C(=O)OC2C3=C(OCCS3)C(=O)N2c2ccc3ccc(Cl)nc3n2)CC1` (stereo unspecified) came in with a melting point of 302 °C. Compound `COCCN1CN(C)C(=O)N(c2nc3c(s2)C(=O)CC(C)(C)C3)C1` came in with a melting point of 136 to 137 °C. In turn, `CSc1ccc(N2CCN(c3c(C)c(C)c4c(c3C)CC(C)(C)O4)CC2)cc1` had a melting point of 211 to 213 °C.

As to `CN1CCN(c2cccc3c2C[C@H](NC(=O)c2csc(-c4ccccc4)n2)CC3)CC1`, the melting point fell in the range of 175 to 176 °C. Consider `CCc1c2c(nc3cc(F)c(OC)cc13)-c1cc3c(c(=O)n1C2)COC(=O)CC3(O)CC` (stereo unspecified), for which the melting point is > 275 °C. Turning to `CCOC(=O)c1cnc2c(NC(=O)c3c(Cl)cccc3Cl)cccc2c1S`, the melting point was 197 to 199 °C. Compound `Clc1ccccc1N=Cc1ccc(-c2nc3ccccn3n2)cc1` returned a melting point of 135 to 136 °C. With `COc1cc(OC)c(-c2cccs2)cc1/C=C/C(=O)c1ccc(S(=O)(=O)NCCCn2ccnc2)cc1`, the melting point lay within 160 to 162 °C.

`C=CCc1cc(C=C2SCNC2=O)cc(CC=C)c1O` came in with a melting point of 184 to 188 °C. Then `CCc1nn(-c2cc(NC(=O)CCOC)ccc2Cl)c(=O)n1Cc1ccc(-c2ccccc2S(=O)(=O)NC(=O)OC(C)(C)C)cc1F`, with 128 to 131 °C. As to `CCC(=O)N(C)Cc1cccc2c1C(=O)N(C1CCC(=O)NC1=O)C2=O` (stereo unspecified), the melting point was 206 to 208 °C. For `C=CCN(CC=C)Cc1noc(-c2ncn3c2[C@@H]2CCCN2C(=O)c2c(Cl)cccc2-3)n1`, the melting point fell in the range of 175 to 177 °C.

In turn, `COc1cc2nc(Cl)nc(Nc3ccc4[nH]ncc4c3)c2cc1OC` registered a melting point of 279 to 284 °C. For `COCC(C)Oc1cc(-n2c(=O)cc(C(F)(F)F)n(C)c2=O)c(F)cc1Cl` (stereo unspecified), the melting point was in the range of 80 to 82 °C. `COc1cc(/C=C/C(=O)c2ccc(C(=O)O)cc2)cc(-c2cccs2)c1OC` registered a melting point of 231 °C.

`CCC1CC(=O)N(Cc2cccc(NC(=O)C(F)(F)C(F)(F)F)c2)N=C1c1ccc(OC)c(OC2CCCC2)c1` (stereo unspecified): the melting point was 126 °C. For `COc1nc(C)nc(N2CCc3ccccc3CC2)c1[N+](=O)[O-]`, the melting point was 123 to 128 °C. Next, `Nc1ccc(CON=Cc2csc(N)n2)cc1`: 181 to 183 °C; `COCCOc1ccc(CCC(=O)O)c(Oc2ncc(C(F)(F)F)cc2Cl)c1`: 116 to 117 °C.

`O=C(O)/C=C/C=C(c1cccc(C(F)(F)F)c1)c1cccc(C(F)(F)F)c1` registered a melting point of 110 to 112 °C. Compound `Cc1ccccc1P(=NC(=O)OCc1cccnc1)(c1ccccc1)c1ccccc1` showed a melting point of 142 to 143 °C. `Cc1nc(OC[C@@H]2COC(C)(C)O2)c(C#N)c(N2CCc3ccccc3CC2)n1`: the melting point fell in the range of 110 to 112 °C. `CCCCCCCCCCCCCCCc1[nH]c2ccc(C(=S)OCC)cc2c1C` displayed a melting point of 55 to 60 °C. Then `CCOC(=O)C(=NOC)c1ccccc1CBr`, with 80 to 81 °C; and `CS(=O)(=O)Nc1ccc(C(=O)NCC23CCCN(CCC2)C3)cc1`, with 137 to 139 °C; and `CN(C(=O)Nc1ccc(Cl)cc1)c1nnc(Br)s1`, with 250 °C.

`COC(=O)CCc1cc2cc(Cl)ccc2n1S(=O)(=O)c1ccc(Cl)cc1` had a melting point of 89 to 92 °C.

With `CC(C)(C)C(=O)OCOC(=O)C1N2C(=O)C(NC(=O)C(N)c3ccccc3)C2SC1(C)C` (stereo unspecified), the melting point lay within 114 to 116 °C.

`O=c1[nH]c2ccc(CCCCN3CCN(c4cccc5ccccc45)CC3)cc2o1` yielded a melting point of 231 to 233 °C. Next, `COc1ccc(C(=O)c2cccc(F)c2)cc1C(=O)O`: 200 °C. `COC1(c2nc3ccc(F)cc3s2)C=CC(=NS(=O)(=O)c2ccc(C)cc2)C=C1` (stereo unspecified) gave a melting point of 135 °C.

As for `CCOc1ccc2c(c1)n(C1CCCCC1)c(=O)n2S(=O)(=O)c1ccc(C(=O)NC23CC4CC(CC(C4)C2)C3)cc1OC`, the melting point turned out to be 228 °C. The compound `Fc1ccc(-c2nc(-c3ccccc3)cn2-c2ccncc2)cc1` had a melting point of 90 to 92 °C.

Consider `CC(=O)NC1CCC2C(C1)c1c(OC(C)=O)cc(OC(C)CCCc3ccccc3)cc1N(C)C2C` (stereo unspecified), for which the melting point lay within 120 to 122 °C.

As to `C=C(C)CCOc1c(-c2ccc(S(C)(=O)=O)cc2)cnn(-c2ccc(F)cc2)c1=O`, the melting point fell in the range of 109 to 111 °C. For the compound `COC(=O)CCC(=O)c1cc2c(cc1Cl)CC(NC(=O)OC)CC2` (stereo unspecified), the melting point was in the range of 86 to 89 °C. `CCCC12CCC(c3ccc(Cl)cc3)(OC1)OC2` showed a melting point of 94 °C. `OC(Cn1cncn1)(c1ccc(Cl)cc1)C1(F)CC1` (stereo unspecified) returned a melting point of 128 °C. In turn, `CCCCCCCCCCCCCCOc1ccc([N+](=O)[O-])cc1OCCCCCCCCCCCCCC` yielded a melting point of 64 to 66 °C. Turning to `O=C1OC(=O)c2ccc3c4cccc5cccc(c6ccc1c2c63)c54`, the melting point is > 260 °C. On to `CCOc1nc(O)c(C#N)s1`, for which the melting point is 132 °C. Turning to `COc1ccc(N2C(=O)N(c3ccccc3)c3nc(Nc4ccccc4)ncc3C2C)cc1` (stereo unspecified), the melting point fell in the range of 222 to 234 °C. With `COc1c(-c2nnc(C)s2)cc2oc(=O)c(C)c(C)c2c1C`, the melting point was 201 to 203 °C. Compound `CC(=O)c1cnc2c(cnn2Cc2ccco2)c1O` gave a melting point of 108 to 110 °C. For `Nc1nc(C(=NOCC(=O)NOCc2ccccc2)C(=O)O)cs1`, the melting point was in the range of 170 to 172 °C. As for `N#Cc1ccc(C(CC(=O)O)N2C(=O)c3ccccc3C2=O)cc1` (stereo unspecified), the melting point lay in the range of 134 to 137 °C. Next, `CCOC(=O)c1cnn(-c2ccccn2)c1Cl`: 50 to 51 °C; `CC(=O)Nc1nc(CCCCl)cs1`: 110 to 112 °C; `c1ccc(C2(Oc3ccccn3)CCNCC2)cc1`: 86 to 87 °C.

In turn, `Cc1nnc2cccc(-c3ccccn3)n12` registered a melting point of 168 to 170 °C.

Take `c1ccc2c(c1)Oc1ccncc1O2`: the melting point lay in the range of 102 to 108 °C. For `CC1(C)OCCN1CCNc1ccc(NCCN2CCOC2(C)C)c2c1C(=O)c1c(O)ccc(O)c1C2=O`, the melting point was 255 to 256 °C.

The compound `CN(C)CCNC(=O)c1cccc(-c2cccc3cn(Cc4cccc(C(F)(F)F)c4)nc23)c1` returned a melting point of 102 to 103 °C. Next, `CCN(CC)c1nc2cc(-c3ccccc3C#N)ccc2[nH]1`: 138 to 142 °C; `CCOC(=O)c1cn(Cc2ccccc2OC)c2sc(-c3ccc(NC(C)=O)cc3)c(CN(C)Cc3ccccc3)c2c1=O`: 161 to 163 °C; `C=CC(C)(C)C1=C(O)C(=O)c2ccccc2C1=O`: 60 °C. In the case of `CC(=O)c1ccc(N2CCN(CCC3CN(C)C(=O)O3)CC2)cc1` (stereo unspecified), the melting point was in the range of 142 to 145 °C.

With `Cc1nc(N2CCNCC2)c2nc(-c3ccccc3)cc-2[nH]1`, the melting point amounted to 236 °C. With `CC(=O)NC1CCN(Cc2cnc3cc(NC(=O)c4ccc(-c5ccc(F)cc5)cc4)ccc3c2)C1` (stereo unspecified), the melting point is 250 to 253 °C. Turning to `CCc1ccc(-n2nc(Cl)cc2-c2ccc(S(C)(=O)=O)cc2)cc1N`, the melting point is 158 to 160 °C. Compound `Cc1cc(C(C)(C)C)cc(C=NO)c1O` came in with a melting point of 107 to 108 °C. Then `Cc1nc(O)cc(C2(c3ccc(Cl)cc3)CCC2)n1`, with 130 to 140 °C; and `O=C(O)CCCCCCCn1cnc(-c2ccccc2Cl)c1-c1ccccc1Cl`, with 145 to 146 °C.

For the compound `BrCC1(CBr)COC(c2ccccc2)OC1`, the melting point turned out to be 66 °C. `N[C@@H](Cc1ccccc1C(F)(F)F)[C@H](O)c1ccc(F)cc1` (racemic) yielded a melting point of 57 to 58 °C. As for `Cc1nc(N2CCN(CC3CC3)C2=O)sc1C(=O)NCc1ccccc1`, the melting point was 142 to 143 °C. In turn, `Nc1nc(-c2ccccc2)c(-c2ccc(=O)n(CC3CC3)n2)s1` displayed a melting point of 204 to 206 °C. Consider `CCOCCOc1ccc(C(=O)CN(Cc2ccccc2)Cc2ccccc2)cc1C(=O)OC`, for which the melting point came out at 57 °C. The compound `CC(=O)Nc1ccc(S(=O)(=O)N[C@H]2COCOC[C@H]2OC(C)=O)cc1` (relative stereo) showed a melting point of 184 to 186 °C. For `COc1cccc2c1OC(C(=O)Nc1ccncc1)C2CC(=O)O` (stereo unspecified), the melting point is 227 to 233 °C. Take `CC=CC=CCOC(=O)C1=C(C)NC(C)=C(C(=O)OC)C1c1cccc([N+](=O)[O-])c1` (stereo unspecified): the melting point was in the range of 135 to 136 °C.

On to `CCCCOc1ccc(S(=O)(=O)N2CCN(C)CC2)cc1-c1nc2cc3nc[nH]c3cc2c(=O)[nH]1`, for which the melting point lay within 124 to 126 °C. `N#C/C=C1\CCc2cc(Br)c3c(c21)CCO3` came in with a melting point of 200 to 203 °C. Compound `COC(=O)c1c(Cl)cc(Cl)cc1NC(=O)CSc1ccc(O)cc1` yielded a melting point of 149 to 151 °C. In the case of `O=CC1(Nc2ccccc2)CCN(Cc2ccccc2)CC1`, the melting point is 118 to 119 °C. With `CCCCCCCCCCCCCCOC(=O)CCCCc1cc(OC(C)=O)c(OC(C)=O)c([N+](=O)[O-])c1`, the melting point fell in the range of 46 to 47 °C. In turn, `c1ccc(-c2nnc(NCC3CC3)cc2-c2ccncc2)cc1` displayed a melting point of 199 to 200 °C. For `CC(C)c1ccccc1S(=O)(=O)c1ccc(OCCCNC(C)(C)C)cc1`, the melting point came to 116 °C. In turn, `O=C(O)C(F)c1ccc(Cl)cc1` (stereo unspecified) showed a melting point of 66 to 68 °C.

`N#CCCOc1ccc(OCCC#N)cc1` had a melting point of 138 to 140 °C.

Compound `COc1ccc(N2CCN(c3c(C)c(C)c4c(c3C)C(O)(C3CCCCC3)C(C)(C)O4)CC2)cc1` (stereo unspecified) had a melting point of 166 to 167 °C. Turning to `CSc1oc2ccc(Br)cc2c(=O)c1-c1ccc(Cl)cc1`, the melting point fell in the range of 205 to 206 °C. On to `C[C@@H](Cc1cc(F)cc2ccoc12)NC(=O)OC(C)(C)C`, for which the melting point lay in the range of 120 to 121 °C.
